# Laboratory results from patent publication US20260374754A1, “N-((ISOQUINOLIN-6-YL)METHYL)-1H-PYRAZOLE-4-CARBOXAMIDE DERIVATIVES AS PLASMA KALLIKREIN INHIBITORS FOR THE TREATMENT OF HEREDITARY ANGIODEMA” (Takeda Pharmaceutical Company Limited, priority 2022, published 2026).
# pEC50: −log10 of the molar value.
# Molecular target: human activated kallikrein enzyme (Homo sapiens, UniProt P03952)
# Assay: Inhibition of human activated plasma kallikrein, fluorogenic PFR-AMC substrate, 500 pM enzyme format
# Assay type: biochemical
# Conditions: 500 pM activated kallikrein; 300 μM PFR-AMC; 30 min preincubation; 10 min room temperature; pH 7.5; read-out: Primary Dose Response Assay: Average EC50
# Outline: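 500 pM activated kallikrein preincubated 30 min at room temperature with inhibitors in pH 7.5 Tris/EDTA/NaCl buffer with PEG-400 and Triton X-100. Reaction started with 300 μM PFR-AMC, run 10 min at room temperature; AMC fluorescence read at ex 380/em 460 nm.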
# human activated kallikrein enzyme, sequence (P03952 391-638 limits assumed): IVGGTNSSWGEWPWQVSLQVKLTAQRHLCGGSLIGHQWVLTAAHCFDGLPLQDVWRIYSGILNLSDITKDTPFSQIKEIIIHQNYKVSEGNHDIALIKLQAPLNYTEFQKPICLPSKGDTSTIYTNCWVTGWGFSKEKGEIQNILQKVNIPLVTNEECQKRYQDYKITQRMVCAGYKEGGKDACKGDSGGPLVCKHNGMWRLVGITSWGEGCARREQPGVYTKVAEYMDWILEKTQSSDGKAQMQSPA
# human activated kallikrein enzyme, sequence (P03952 20-390 partner limits assumed): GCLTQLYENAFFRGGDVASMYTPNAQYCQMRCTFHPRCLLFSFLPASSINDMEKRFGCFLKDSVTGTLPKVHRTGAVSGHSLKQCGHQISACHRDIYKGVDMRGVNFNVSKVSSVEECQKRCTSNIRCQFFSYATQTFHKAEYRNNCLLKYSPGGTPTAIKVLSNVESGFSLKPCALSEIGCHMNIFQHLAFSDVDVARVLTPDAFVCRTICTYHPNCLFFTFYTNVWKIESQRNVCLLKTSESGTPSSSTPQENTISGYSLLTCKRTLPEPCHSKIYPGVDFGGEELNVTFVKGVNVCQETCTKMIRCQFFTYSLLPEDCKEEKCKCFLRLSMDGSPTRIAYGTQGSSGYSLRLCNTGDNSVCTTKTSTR
row,pEC50,SMILES
1,7.00 to 8.00,"Cc1cc2c(N)nccc2c(C)c1CNc1ncccc1NCc1cn2cc(C3CC3)ccc2n1 [Example 506, N^2-((1-amino-5,7-dimethylisoquinolin-6-yl)methyl)-N^3-((6-cyclopropylimidazo[1,2-a]pyridin-2-yl)methyl)pyridine-2,3-diamine]"
2,8.00 to 9.00,"Cc1cc2c(N)nccc2c(C)c1CNC(=O)Nc1ncncc1OCc1cn2cc(C3CC3)ccc2n1 [Example 507, 1-((1-amino-5,7-dimethylisoquinolin-6-yl)methyl)-3-(5-((6-cyclopropylimidazo[1,2-a]pyridin-2-yl)methoxy)pyrimidin-4-yl)urea]"
3,8.00 to 9.00,"Cc1cc2c(N)nccc2c(C)c1CNc1nsc(NCc2cn3cc(C4CC4)ccc3n2)n1 [Example 511, N^3-((1-amino-5,7-dimethylisoquinolin-6-yl)methyl)-N^5-((6-cyclopropylimidazo[1,2-a]pyridin-2-yl)methyl)-1,2,4-thiadiazole-3,5-diamine]"
4,8.00 to 9.00,"Cc1cc2c(N)nccc2c(C)c1CNc1cc(N2C[C@@H](O[Si](C)(C)C(C)(C)C)C[C@@H]2c2cn3cc(C4CC4)ccc3n2)ncn1 [Example 512, 6-(((6-((2R,4S)-4-((tert-butyldimethylsilyl)oxy)-2-(6-cyclopropylimidazo[1,2-a]pyridin-2-yl)pyrrolidin-1-yl)pyrimidin-4-yl)amino)methyl)-5,7-dimethylisoquinolin-1-amine]"
5,7.00 to 8.00,"Cc1cc2c(N)nccc2c(C)c1CNc1cc(N(Cc2cn3nc(C4CC4)ccc3n2)CC(F)(F)F)ncn1 [Example 516, N^4-((1-amino-5,7-dimethylisoquinolin-6-yl)methyl)-N^6-((6-cyclopropylimidazo[1,2-b]pyridazin-2-yl)methyl)-N6-(2,2,2-trifluoroethyl)pyrimidine-4,6-diamine]"
6,6.00 to 7.00,"Cc1cc2c(N)nccc2c(C)c1CNc1cc2c(ccn2Cc2ccc3ncccc3c2)cn1 [Example 517, 5,7-dimethyl-6-(((1-(quinolin-6-ylmethyl)-1H-pyrrolo[3,2-c]pyridin-6-yl)amino)methyl)isoquinolin-1-amine]"
7,< 6.00,"Cc1cc2c(N)nccc2c(C)c1CNc1cc2c(ccn2Cc2ccc3ncc(Cl)cc3c2)cn1 [Example 518, 6-(((1-((3-chloroquinolin-6-yl)methyl)-1H-pyrrolo[3,2-c]pyridin-6-yl)amino)methyl)-5,7-dimethylisoquinolin-1-amine]"
8,6.00 to 7.00,"Cc1cc2c(N)nccc2c(C)c1CNc1ccc2nnc(Cc3ccc4ncc(Cl)cc4c3)n2c1 [Example 519, 6-(((3-((3-chloroquinolin-6-yl)methyl)-[1,2,4]triazolo[4,3-a]pyridin-6-yl)amino)methyl)-5,7-dimethylisoquinolin-1-amine]"
9,< 6.00,"Cc1cc2c(N)nccc2c(C)c1CNc1ccc2cnc(Cc3ccc4ncc(Cl)cc4c3)n2c1 [Example 520, 6-(((3-((3-chloroquinolin-6-yl)methyl)imidazo[1,5-a]pyridin-6-yl)amino)methyl)-5,7-dimethylisoquinolin-1-amine]"
10,< 6.00,"Cc1cc2c(N)nccc2c(C)c1CNc1ccc2ncc(C(O)c3ccc4ccccc4c3)n2c1 (stereo not drawn) [Example 521, (6-(((1-amino-5,7-dimethylisoquinolin-6-yl)methyl)amino)imidazo[1,2-a]pyridin-3-yl)(naphthalen-2-yl)methanol]"
11,< 6.00,"Cc1cc2c(N)nccc2c(C)c1CNc1ccc2ncc(Cc3ccc4ccccc4c3)n2c1 [Example 522, 5,7-dimethyl-6-(((3-(naphthalen-2-ylmethyl)imidazo[1,2-a]pyridin-6-yl)amino)methyl)-isoquinolin-1-amine]"
12,< 6.00,"Cc1cc2c(N)nccc2c(C)c1CNc1cn2c(Cc3ccc4ccccc4c3)ncc2cn1 [Example 523, 5,7-dimethyl-6-(((3-(naphthalen-2-ylmethyl)imidazo[1,5-a]pyrazin-6-yl)amino)methyl)isoquinolin-1-amine]"
